Data set [1] deals with Caco-2 cells. Kind of data set: MetaCore pathway analysis of differentially expressed genes. The data set is classed as cell-based, human. The note with it: for Number of pathways: significant pathways p<0.01, 20 uM H2O2 or 100 uM menadione. An excerpt: The p-Values were all calculated using the basic formula for hypergeometric distribution. The p-Value essentially represents the probability for a particular mapping of an experiment to a pathway to arise by chance, considering the numbers of genes in experiment versus the number of genes in the pathway within the “full set” of all genes in the pathway.

Data set [2] relates to Caco-2 cells. Kind of data set: 8-oxodG analysis (oxidative DNA damage, HPLC-ECD). The class given is cell-based, human. The protocol: The Caco-2 human colorectal adenocarcinoma cell line (American Type Culture Collection, Manassas, Va., USA) was grown in Dulbecco's Modified Eagle's Medium supplemented with 10% fetal bovine serum, 1% non-essential amino acids, 1% sodium pyruvate and 1% penicillin/streptomycin, at 37° C., and 5% CO2. Cells were grown until 80% confluency before medium was replaced by DMEM without supplements containing 100 μM menadione or 20 μM H202. For microarray analyses, time-matched control cells were treated in an identical manner without addition of the oxidants. Samples were taken after 0.08, 0.25, 0.5, 1, 2, 4, 8, 16, or 24 hours. […] At the indicated time points, cells were fixed in 2 ml ice cold methanol for flow cytometry or medium was replaced by 1 ml Trizol for RNA/DNA isolation. […] Briefly, after extraction, DNA was digested into deoxyribonucleosides by treatment with nuclease P1 [0.02 U/μl] and alkaline phosphatase [0.014 U/μl]. The digest was then injected into a HPLC-ECD-system. […] UV-absorption of dG was simultaneously monitored at 260 nm. Data are presented as means ±SD.

Data set [3] concerns Caco-2 cells. Kind of data set: STEM time series analysis of gene expression. The note with it: for genes whose time-dependent expression correlates with 8-oxodG levels / genes significantly assigned to clusters of gene expression curves / number of different clusters of gene expression curves: STEM; for genes whose time-dependent expression correlates with 8-oxodG levels: log ratio transformed 8-oxodG levels; for genes significantly assigned to clusters of gene expression curves / number of different clusters of gene expression curves: 20 uM H2O2 or 100 uM menadione. The data set is classed as cell-based, human. An excerpt:
For identification of genes co-regulated time-dependently and clustering with the phenotypic parameters, the software tool “Short Time-series Expression Miner” (STEM, version 1.1.2b; http://www.cs.cmu.edu/˜jernst/stem/) was used. […] Profiles are clustered by correlation analyses.

Data set [4] relates to Caco-2 cells. Put plainly: ESR spectroscopy of cellular radical formation (DMPO spin trap). The class given is cell-based, human.
Data set [5] concerns Caco-2 cells. Put plainly: Flow cytometric analysis of cell cycle distribution. The class given is cell-based, human. The note with it: for percentage of cells in the S phase: 20 uM H2O2 or 100 uM menadione. As to the method: (§1) The Caco-2 human colorectal adenocarcinoma cell line (American Type Culture Collection, Manassas, Va., USA) was grown in Dulbecco's Modified Eagle's Medium supplemented with 10% fetal bovine serum, 1% non-essential amino acids, 1% sodium pyruvate and 1% penicillin/streptomycin, at 37° C., and 5% CO2. Cells were grown until 80% confluency before medium was replaced by DMEM without supplements containing 100 μM menadione or 20 μM H202. For microarray analyses, time-matched control cells were treated in an identical manner without addition of the oxidants. Samples were taken after 0.08, 0.25, 0.5, 1, 2, 4, 8, 16, or 24 hours. […] At the indicated time points, cells were fixed in 2 ml ice cold methanol for flow cytometry or medium was replaced by 1 ml Trizol for RNA/DNA isolation. Analyses of cell cycle profiles and apoptosis was performed as previously described. Cells were stained with propidium iodide; apoptotic cells were visualised by means of the primary antibody M30 CytoDeath (Roche, Penzberg, Germany) and FITC conjugated anti-mouse Ig as secondary antibody (DakoCytomation, Glostrup, Denmark). Data analysis was done using CellQuest software (version 3.1, Becton Dickinson, San Jose, USA). […] Cell cycle profiles were analyzed using ModFit LT for Mac (version 2.0). Data are presented as means ±SD.
(In flow cytometry, cells or beads pass a laser one at a time.)

Data set [6] concerns Caco-2 cells. Particulars: 75 μM H2O2, 30 minutes incubation time; cited from earlier work.
Data set [7] relates to Caco-2 cells. Put plainly: Microarray gene expression, differentially expressed genes. The class given is cell-based, human. The note with it: for number of differentially expressed genes: 20 uM H2O2 or 100 uM menadione, all time points up to 24 hours. The protocol:
The Caco-2 human colorectal adenocarcinoma cell line (American Type Culture Collection, Manassas, Va., USA) was grown in Dulbecco's Modified Eagle's Medium supplemented with 10% fetal bovine serum, 1% non-essential amino acids, 1% sodium pyruvate and 1% penicillin/streptomycin, at 37° C., and 5% CO2. Cells were grown until 80% confluency before medium was replaced by DMEM without supplements containing 100 μM menadione or 20 μM H202. For microarray analyses, time-matched control cells were treated in an identical manner without addition of the oxidants. […] At the indicated time points, cells were fixed in 2 ml ice cold methanol for flow cytometry or medium was replaced by 1 ml Trizol for RNA/DNA isolation. Labelling and hybridisation of RNA samples were done according to Agilent's manual for microarrays with minor modifications ((Agilent Technologies, Breda, The Netherlands). RNA (0.5 μg) was transcribed into cDNA and labelled with Cyanine 3 (Cy3) or Cyanine 5 (Cy5). When dye-incorporation was above 7 pmol/μg RNA, 2 μg cRNA of the treated and time-matched control samples was applied on […] 22K and […] 4×44K Agilent Human Oligo Microarray. Slides were scanned on a GenePix 4000B (Molecular Devices, Sunnyvale, USA) with fixed laser power (100%) and PMT gain. For each exposure, two biological repeats per time point were performed. Also swapped Cy3 and Cy5 dye labelling was done, resulting in 72 hybridisations. Images were processed with ImaGene 6.0 software (BioDiscovery Inc., Los Angeles, USA) to quantify spot signals. Irregular spots were flagged. Data from ImaGene were transported into GeneSight software version 4.1.6 (BioDiscovery Inc., Los Angeles, USA). For each spot background was subtracted and flagged spots as well as spots with a net expression level below 20 in both channels were omitted. Data were log base 2 transformed and LOWESS normalization was applied. Expression difference with the time-matched control was calculated and if more than one probe of a gene was present on the array, the replicates were combined while omitting outliers (>2 standard deviations). Only the probe sets present at both types of array platforms were selected. […] The webtool GenePattern (http://genepattern.broad.mit.edu/gp/pages/index.jsf) was used for clustering and visualization of heat maps and cluster patterns.

For data set [8], the system named is steroid 5-alpha reductase. The note with it: inhibition of steroid 5-alpha reductase; cited from earlier work.
For another data set, the system named is rat hepatocytes. The note with it: up to 2 hours after incubation; cited from earlier work.
In data set [9] the test system is Caco-2 cells. Put plainly: Flow cytometric analysis of apoptosis (M30 CytoDeath). The class given is cell-based, human. The note with it: 20 uM H2O2 or 100 uM menadione. As to the method:
as §1

In the case of `OO` [H2O2, hydrogen peroxide], the “induction of the WNT signalling pathway” value in the data set with Caco-2 cells [1] (H2O2 exposure) is “immediately”. For the same molecule, the Number of pathways amounted to 8 in the data set on Caco-2 cells [1] (time 0.08 hrs); 15 with Caco-2 cells [1] (time 0.25 hrs); 17 in the data set with Caco-2 cells [1] (time 0.5 hrs); 6 with Caco-2 cells [1] (time 1 hrs); 4 in the data set on Caco-2 cells [1] (time 2 hrs); 5 in the data set on Caco-2 cells [1] (time 4 hrs). Besides, the Number of pathways came to 8 with Caco-2 cells [1] (time 8 hrs), 5 with Caco-2 cells [1] (time 16 hrs) and 6 in the data set with Caco-2 cells [1] (time 24 hrs). The “8-oxodG level at 16 hours after exposure” value in the data set with Caco-2 cells [2] (20 uM H2O2, 16 hours) is on record as “significantly elevated”. In the data set on Caco-2 cells [2] (20 uM H2O2, compared to control cells), the “time of significantly increased peak in 8-oxodG” value turned out to be 15 min. In addition, the “Number of pathways of the gene expression cluster profile” value in the data set on Caco-2 cells [3] (H2O2, STEM cluster 0, p<0.01) is 4; in the data set with Caco-2 cells [3] (H2O2, STEM cluster 1, p<0.01), 1; in the data set with Caco-2 cells [3] (H2O2, STEM cluster 2, p<0.01), 9; in the data set on Caco-2 cells [3] (H2O2, STEM cluster 3, p<0.01), 1; in the data set on Caco-2 cells [3] (H2O2, STEM cluster 4, p<0.01), 3; with Caco-2 cells [3] (H2O2, STEM cluster 5, p<0.01), 4. In addition, the “genes whose time-dependent expression correlates with 8-oxodG levels” value in the data set with Caco-2 cells [3] is recorded as 8 genes. For the same molecule, the “genes significantly assigned to clusters of gene expression curves” value in the data set with Caco-2 cells [3] is 998 genes. For the same molecule, in the data set on Caco-2 cells [3], the “number of different clusters of gene expression curves” value amounted to 6 clusters. The “genes clustered by STEM with cell cycle phase” value with Caco-2 cells [3] (cell cycle phase G1) turned out to be 29; in the data set on Caco-2 cells [3] (cell cycle phase G2/M), 45; in the data set with Caco-2 cells [3] (cell cycle phase S), 1. In addition, the “significant pathways of genes clustered with cell cycle phase” value in the data set with Caco-2 cells [3] (cell cycle phase G1, p<0.01) came out at 0; in the data set on Caco-2 cells [3] (cell cycle phase G2/M, p<0.01), 1; with Caco-2 cells [3] (cell cycle phase S, p<0.01), 0. Besides, the “cellular HO. formation (DMPO.-OH)” value with Caco-2 cells [4] (increasing concentrations of H2O2) was “dose-dependent formation of DMPO.-OH”. Further, in the data set with Caco-2 cells [5] (16 h after exposure, compared to control cells), the “number of cells in G1 phase” value is listed as “significantly decreased”. Besides, the “percentage of cells in the G1/M phase” value in the data set on Caco-2 cells [5] (24 h, 20 uM H2O2) is on record as “significantly increased”. Moreover, in the data set with Caco-2 cells [5] (24 h), the “percentage of cells in the S phase” value is listed as “significantly decreased”. The “affected genes selected out of 12931 genes” value with Caco-2 cells [6] was 87 genes. Also, the “number of differentially expressed genes” value with Caco-2 cells [7] was 1404 genes. For the same molecule, the “recovery of the gene expression response” value in the data set with Caco-2 cells [7] (pulse-like response towards H2O2) was no more than 1 h.
For the molecule `CC(C)(C)NC(=O)[C@H]1CC[C@H]2[C@@H]3CC[C@H]4NC(=O)C=C[C@]4(C)[C@H]3CC[C@]12C` [finasteride], the “effect on cellular H2O2 production” value in data set [8] is reported as “enhancement of cellular H2O2 production”.
Regarding `CC1=CC(=O)c2ccccc2C1=O` [menadione], the “time after which the WNT signalling pathway is induced” value in the data set with Caco-2 cells [1] (menadione exposure) was 1 h. In addition, the “number of pathways significantly induced exclusively by the oxidant” value with Caco-2 cells [1] (p < 0.01) worked out at 24. The Number of pathways came out at 18 with Caco-2 cells [1] (time 0.08 hrs); 16 in the data set with Caco-2 cells [1] (time 0.25 hrs); 14 in the data set with Caco-2 cells [1] (time 0.5 hrs); 15 in the data set on Caco-2 cells [1] (time 1 hrs); 8 in the data set with Caco-2 cells [1] (time 2 hrs); 10 in the data set with Caco-2 cells [1] (time 4 hrs). The Number of pathways in the data set with Caco-2 cells [1] (time 8 hrs) was determined as 14; in the data set on Caco-2 cells [1] (time 16 hrs), 19; in the data set on Caco-2 cells [1] (time 24 hrs), 18. For the same molecule, the 8-oxodG formation entry in the data set on rat hepatocytes is “absence of 8-oxodG formation”. Moreover, the induction of apoptosis entry with Caco-2 cells [9] is given as “absence of apoptosis”. Moreover, the “time of highest significantly increased level of 8-oxodG” value in the data set with Caco-2 cells [2] (100 uM menadione) is 2 h. Moreover, in the data set on Caco-2 cells [2] (100 uM menadione, 15 minutes, much lower than H2O2 at 15 minutes), the “8-oxodG level at 15 minutes” value is recorded as “significant increased level”. Further, the “genes whose time-dependent expression correlates with 8-oxodG levels” value in the data set with Caco-2 cells [3] was determined as 3 genes. Also, in the data set on Caco-2 cells [3], the “genes significantly assigned to clusters of gene expression curves” value came to 680 genes. In addition, the “number of different clusters of gene expression curves” value in the data set on Caco-2 cells [3] is 4 clusters. Also, the results for the “genes clustered by STEM with cell cycle phase” value in the data set on Caco-2 cells [3] (cell cycle phase G1), with Caco-2 cells [3] (cell cycle phase G2/M) and in the data set on Caco-2 cells [3] (cell cycle phase S) were 311, 1 and 74, respectively. Besides, the “significant pathways of genes clustered with cell cycle phase” value in the data set on Caco-2 cells [3] (cell cycle phase G1, p<0.01) is reported as 15; in the data set with Caco-2 cells [3] (cell cycle phase G2/M, p<0.01), 0; with Caco-2 cells [3] (cell cycle phase S, p<0.01) it was 4. Moreover, the “Number of pathways of the gene expression cluster profile” value turned out to be 12 in the data set with Caco-2 cells [3] (menadione, STEM cluster 0, p<0.01); 18 in the data set on Caco-2 cells [3] (menadione, STEM cluster 1, p<0.01); 4 with Caco-2 cells [3] (menadione, STEM cluster 2, p<0.01); 8 in the data set with Caco-2 cells [3] (menadione, STEM cluster 3, p<0.01). The “O2.-derived DMPO.-OH signal” value in the data set on Caco-2 cells [4] (100 uM, 45 minutes incubation time) is on record as “showed an O2.-derived DMPO.-OH signal”. In addition, the “cells of the G1 phase” value with Caco-2 cells [5] (24 h, 100 uM menadione) is given as “significant decrease”. Further, the “percentage of cells in the S phase” value in the data set on Caco-2 cells [5] (24 h) was “significant increase”. The “number of differentially expressed genes” value in the data set with Caco-2 cells [7] is recorded as 979 genes. Besides, the “recovery of the gene expression response” value in the data set on Caco-2 cells [7] (up to 24 hours) was “no recovery”.
